Measured values: US7803546B2, “Method of screening for sensitivity to kinase inhibitor therapy” (Cedars-Sinai Medical Center, priority 2002, dated 2010)

Assays:
[1] = test system: IRESSA-resistant (IR) CWR22R tumors; assay: Treatment of IRESSA-resistant (IR) CWR22R tumor lines; conditions: after three weeks of treatment, tumor growth curves
[2] = test system: androgen-independent (CWR22R) xenograft tumors
Protocol: (§1) A control (i.e., no TKI administered) is graphically depicted as well. This experiment was performed in an androgen-independent prostate xenograft model. […] The daily dosing was at the maximally tolerated dosage in the mice.
as §1

[3] = test system: non-small cell lung cancer; assay: Clinical response to TKI therapy in non-small cell lung cancer patients, correlated with EMP-1 expression; type: in vivo, human; conditions: NSCLC patients; EMP-1 detectable by TAQMAN
Protocol: The gene expression profiles of IR tumors were analyzed by gene chip analysis, using the gene arrays described in Alon et al., Proc. Natl. Acad. Sci. USA, vol. […] Presence of EMP-1 RNA was assessed with TAQMAN from paraffin samples.

SMILES: COc1cc2ncnc(Nc3ccc(F)c(Cl)c3)c2cc1OCCCN1CCOCC1 [IRESSA, Gefitnib]
- Response of serially passaged tumors to IRESSA, generations F0-F3 [1]: demonstrated sensitivity
- Tolerability of weekly dosing ([2]; mouse, in vivo): well tolerated
- Decrease in tumor volume in this tumor model ([2]; summary range following IRESSA treatment (covers CWR22 and CWR22R)): 50-70%
- Probability of response to therapy in individuals with EMP-1 expression above threshold [3]: less than 10%
